Where “and” joins values, the source holds several entries; their conditions need not be identical. Identical values can stand only once. Inconclusive results and toxic doses are left out.
Test system: CD2F1 mice, L1210 leukemia sc, survival T/C
Test: NCI In Vivo Anticancer Drug Screen. Data for tumor model L1210 Leukemia (subcutaneous) in CD2F1 (CDF1) mice
Settings: endpoint: median survival time, higher = longer survival
How it was run: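 T/C ratio: treated-group survival or tumor size over vehicle-control group measurement, in mice carrying transplanted tumors.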

What does the source list for `O=c1[nH]c(=O)n(C2CC(O)C(CO)O2)cc1C(F)(F)F` (centres undefined)?
T/C (dose: 2.5 mg/kg/injection, schedule: Q01DX009 (ip), vehicle: saline with Tween-80): 106 % of control; T/C (dose: 5.0 mg/kg/injection, schedule: Q01DX009 (ip), vehicle: saline with Tween-80): 114 % of control; T/C (dose: 10.0 mg/kg/injection, schedule: Q01DX009 (ip), vehicle: saline with Tween-80): 117 % of control and 121 % of control; T/C (dose: 10.0 mg/kg/injection, schedule: Q01DX009 (sc), vehicle: saline): 111 % of control and 122 % of control; T/C (dose: 13.3 mg/kg/injection, schedule: Q01DX009 (sc), vehicle: saline with Tween-80): 122 % of control; T/C (dose: 20.0 mg/kg/injection, schedule: Q01DX009 (sc), vehicle: saline): 111 % of control; T/C (dose: 40.0 mg/kg/injection, schedule: Q01DX009 (ip), vehicle: saline with Tween-80): 153 % of control; T/C (dose: 40.0 mg/kg/injection, schedule: Q01DX009 (sc), vehicle: saline): 118 % of control and 123 % of control; T/C (dose: 60.0 mg/kg/injection, schedule: Q01DX009 (ip), vehicle: saline with Tween-80): 156 % of control; T/C (dose: 60.0 mg/kg/injection, schedule: Q01DX009 (sc), vehicle: saline with Tween-80): 152 % of control; T/C (dose: 80.0 mg/kg/injection, schedule: Q01DX009 (ip), vehicle: saline with Tween-80): 150 % of control; T/C (dose: 80.0 mg/kg/injection, schedule: Q01DX009 (sc), vehicle: saline with Tween-80): 154 % of control; T/C (dose: 90.0 mg/kg/injection, schedule: Q01DX009 (sc), vehicle: saline with Tween-80): 167 % of control; T/C (dose: 105.0 mg/kg/injection, schedule: Q01DX009 (sc), vehicle: saline with Tween-80): 150 % of control; T/C (dose: 120.0 mg/kg/injection, schedule: Q01DX009 (sc), vehicle: saline with Tween-80): 158 % of control and 162 % of control; T/C (dose: 135.0 mg/kg/injection, schedule: Q01DX009 (sc), vehicle: saline with Tween-80): 162 % of control; T/C (dose: 160.0 mg/kg/injection, schedule: Q01DX009 (ip), vehicle: saline with Tween-80): 121 % of control; T/C (dose: 160.0 mg/kg/injection, schedule: Q01DX009 (sc), vehicle: saline): 120 % of control; T/C (dose: 180.0 mg/kg/injection, schedule: Q01DX009 (sc), vehicle: saline with Tween-80): 120 % of control; T/C (dose: 180.0 mg/kg/injection, schedule: Q01DX009 (sc), vehicle: saline): 161 % of control; T/C (dose: 211.2 mg/kg/injection, schedule: Q01DX009 (sc), vehicle: saline with Tween-80): 151 % of control; T/C (dose: 240.0 mg/kg/injection, schedule: Q01DX009 (sc), vehicle: saline): 158 % of control; T/C (dose: 320.0 mg/kg/injection, schedule: Q01DX009 (ip), vehicle: saline with Tween-80): 108 % of control; T/C (dose: 320.0 mg/kg/injection, schedule: Q01DX009 (sc), vehicle: saline with Tween-80): 156 % of control; T/C (dose: 320.0 mg/kg/injection, schedule: Q01DX009 (sc), vehicle: saline): 119 % of control; T/C (dose: 960.0 mg/kg/injection, schedule: Q01DX009 (sc), vehicle: saline with Tween-80): 122 % of control

For `CN(N=O)C(=O)N[C@@H](C=O)[C@@H](O)[C@H](O)[C@H](O)CO`, which T/C (dose: 12.5 mg/kg/injection, schedule: Q01DX009 (ip), vehicle: other) is on record?
The T/C was 110 % of control.

What about the T/C (dose: 12.5 mg/kg/injection, schedule: Q01DX009 (sc), vehicle: other) of the same compound?
The T/C was 104 % of control and 109 % of control.

What about the T/C (dose: 25.0 mg/kg/injection, schedule: Q01DX009 (ip), vehicle: other) of the same compound?
Its T/C is 124 % of control.

What about the T/C (dose: 25.0 mg/kg/injection, schedule: Q01DX009 (sc), vehicle: other) of the same compound?
The T/C was 106 % of control and 122 % of control.

What about the T/C (dose: 50.0 mg/kg/injection, schedule: Q01DX009 (sc), vehicle: other) of the same compound?
Its T/C is 109 % of control.

And the T/C (dose: 100.0 mg/kg/injection, schedule: Q01DX009 (ip), vehicle: other)?
The T/C was 121 % of control.

What about the T/C (dose: 100.0 mg/kg/injection, schedule: Q01DX009 (sc), vehicle: other) of the same compound?
Its T/C is 115 % of control.

What about the T/C (dose: 200.0 mg/kg/injection, schedule: Q01DX009 (sc), vehicle: other) of the same compound?
The T/C was 111 % of control.

How did the T/C (dose: 0.04 mg/kg/injection, schedule: Q01DX009 (ip), vehicle: Klucel (hydroxypropylcellulose) (HPC)) turn out when `Nc1nc(N)c2cc(CCc3ccc(C(=O)NC(CCC(=O)O)C(=O)O)cc3)ccc2n1` (centres undefined) was run?
The T/C was 98 % of control.

What about the T/C (dose: 0.08 mg/kg/injection, schedule: Q01DX009 (ip), vehicle: Klucel (hydroxypropylcellulose) (HPC)) of the same compound?
The T/C was 102 % of control.

What about the T/C (dose: 0.16 mg/kg/injection, schedule: Q01DX009 (ip), vehicle: Klucel (hydroxypropylcellulose) (HPC)) of the same compound?
Its T/C is 105 % of control.

And the T/C (dose: 0.63 mg/kg/injection, schedule: Q01DX009 (ip), vehicle: Klucel (hydroxypropylcellulose) (HPC))?
The T/C was 89 % of control.

Which T/C (dose: 0.25 mg/kg/injection, schedule: Q01DX009 (ip), vehicle: Klucel (hydroxypropylcellulose) (HPC)) does the source give for `CO[C@H](/C(C)=C/C=C/C(C)=C/c1coc(C)n1)[C@H](C)[C@H]1C[C@@H](O)[C@@]2(C)O[C@H]2/C=C/[C@@H](C)[C@@H]2C[C@@H](CC(=O)O2)C[C@H]2O[C@@H]2C(=O)O1` here?
The T/C was 107 % of control.

And the T/C (dose: 1.0 mg/kg/injection, schedule: Q01DX009 (ip), vehicle: Klucel (hydroxypropylcellulose) (HPC))?
The T/C was 119 % of control.

`O=C(CCBr)N1CCN(C(=O)CCBr)CC1` was tested. Which T/C (dose: 28.0 mg/kg/injection, schedule: Q01DX Z (sc), vehicle: methylcellulose (MC)) did it give?
The T/C was 111 % of control.

What about the T/C (dose: 47.0 mg/kg/injection, schedule: Q01DX Z (sc), vehicle: methylcellulose (MC)) of the same compound?
Its T/C is 111 % of control.

What about the T/C (dose: 78.0 mg/kg/injection, schedule: Q01DX Z (sc), vehicle: methylcellulose (MC)) of the same compound?
Its T/C is 122 % of control.

And the T/C (dose: 360.0 mg/kg/injection, schedule: Q01DX Z (sc), vehicle: methylcellulose (MC))?
The T/C was 122 % of control.

— PubChem BioAssay AID258 (DTP/NCI, 2004)
